Counter-ions that a name gives are not always drawn.
What was measured:
[1] = target: recombinantly expressed human α7-nAChR (Homo sapiens, UniProt P36544); conditions: literature value, [125I] α-BTX radioligand, read-out: Ki (lit); cited from earlier work
human α7 nAChR = human α7 nAChR (Homo sapiens, UniProt P36544); conditions: reference compound in the above described human α7 nAChR binding assay provided by Cerep
[2] = target: T1, human 5-HT3 serotonin receptors (Homo sapiens, UniProt P46098); test: biochemical; type: binding; conditions: CHO cell membranes expressing human 5-HT3 receptors, [3H]BRL 43694, 120 min at room temperature; read-out: h-5HT3 Ki
T1 sequence (P46098 24-478): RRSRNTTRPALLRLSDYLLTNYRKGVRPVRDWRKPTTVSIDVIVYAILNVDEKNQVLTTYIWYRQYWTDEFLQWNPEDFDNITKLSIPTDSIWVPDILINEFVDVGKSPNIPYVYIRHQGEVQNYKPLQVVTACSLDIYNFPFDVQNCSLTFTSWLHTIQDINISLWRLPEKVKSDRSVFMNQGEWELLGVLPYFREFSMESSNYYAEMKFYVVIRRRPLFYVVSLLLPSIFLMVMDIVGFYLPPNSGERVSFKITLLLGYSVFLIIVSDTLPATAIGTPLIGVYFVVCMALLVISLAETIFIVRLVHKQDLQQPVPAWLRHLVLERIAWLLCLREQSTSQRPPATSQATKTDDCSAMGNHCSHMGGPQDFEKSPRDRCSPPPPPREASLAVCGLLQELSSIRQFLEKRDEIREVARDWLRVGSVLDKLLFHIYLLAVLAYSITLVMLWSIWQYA

Sequence of recombinantly expressed human α7-nAChR (P36544 23-502): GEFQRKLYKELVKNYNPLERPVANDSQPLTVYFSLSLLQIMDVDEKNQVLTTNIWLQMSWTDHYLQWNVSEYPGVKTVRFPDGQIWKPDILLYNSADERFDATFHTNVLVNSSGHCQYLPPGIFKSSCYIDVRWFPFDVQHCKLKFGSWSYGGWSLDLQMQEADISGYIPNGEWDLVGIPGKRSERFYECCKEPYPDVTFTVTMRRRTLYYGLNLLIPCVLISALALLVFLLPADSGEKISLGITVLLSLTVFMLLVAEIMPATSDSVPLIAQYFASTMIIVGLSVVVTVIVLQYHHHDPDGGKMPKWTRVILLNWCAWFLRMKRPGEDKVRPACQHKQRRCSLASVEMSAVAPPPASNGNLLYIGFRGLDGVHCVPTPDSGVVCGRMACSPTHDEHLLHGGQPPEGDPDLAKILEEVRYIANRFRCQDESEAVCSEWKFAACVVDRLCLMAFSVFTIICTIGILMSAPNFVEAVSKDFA
Sequence of human α7 nAChR (P36544 23-502): as above

Cc1ccc(-c2ccc(OC3CN4CCC3CC4)cn2)cc1 (centres unmarked) [AQW051]
Ki [1]: 28 nM
Ki (human α7 nAChR): 255 nM

c1ccc2sc(NC3=NOC4(C3)CN3CCC4CC3)nc2c1 (single isomer, unassigned) [Compound 3-P2, N-(benzo[d]thiazol-2-yl)-4H-1′-azaspiro[isoxazole-5,3′-bicyclo[2.2.2]octan]-3-amine]
Ki [2]: 350 nM

Cc1csc2cc(NC3=NO[C@@]4(C3)CN3CCC4CC3)ccc12 [(R)-56, (R)—N -(3-methylbenzo[b]thiophen-6-yl)-4H-1′-azaspiro[isoxazole-5,3′-bicyclo[2.2.2]octan]-3-amine hydrochloride]
Ki [2]: > 10000 nM

c1cc2nc(NC3=NOC4(C3)CN3CCC4CC3)sc2cc1C1CC1 (single isomer, unassigned) [Compound 15-P1, N-(6-cyclopropylbenzo[d]thiazol-2-yl)-4H-1′-azaspiro[isoxazole-5,3′-bicyclo[2.2.2]octan]-3-amine]
Ki [2]: > 10000 nM

Source: US20170247393A1, “Aminoisoxazoline Compounds as Agonists of Alpha7-Nicotinic Acetylcholine Receptors” (Forum Pharmaceuticals, Inc., priority 2015, published 2017)
